According to article PMC8844822, “SARM1 is a multi-functional NAD(P)ase with prominent base exchange activity, all regulated bymultiple physiologically relevant NAD metabolites” (iScience, 2022):

Assays:
Assay type in all cases: biochemical
hSARM1 SAM-TIR [1] = target: T1, hSARM1 SAM-TIR (Homo sapiens, UniProt Q6SZW1); assay: NADase inhibition by pyridine ribosides, IC50 and inhibition kinetics (HPLC); settings: for IC50: NAD […], preliminary; for Ki: variable NAD 15-600 μM
T1 construct: made in house
T1 sequence (Q6SZW1 409-724): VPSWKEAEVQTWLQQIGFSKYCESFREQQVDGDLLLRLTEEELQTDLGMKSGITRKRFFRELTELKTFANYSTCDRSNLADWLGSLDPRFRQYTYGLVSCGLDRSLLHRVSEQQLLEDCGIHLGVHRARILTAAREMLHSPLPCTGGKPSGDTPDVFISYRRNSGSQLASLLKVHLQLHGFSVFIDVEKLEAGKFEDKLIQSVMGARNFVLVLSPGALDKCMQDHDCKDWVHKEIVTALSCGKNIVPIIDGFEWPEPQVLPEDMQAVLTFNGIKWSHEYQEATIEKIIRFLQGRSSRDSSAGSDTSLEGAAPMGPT
Experimental: (§1) hSARM1 species were routinely assayed by the NAD/NADH-Glo^TM Assay (Promega) while both Aplysia cyclase and CD38 were assayed by fluorometry using ϵNAD ([Orsomando et al., 2000]). […] Other reagents used in addition to, or in place of those above are detailed in text or in figure legends, for example metal ions, free bases, dinucleotide analogues, mononucleotides, and ribosides. Assays were all carried out at 25°C except for temperature studies. Reactions were stopped by HClO4/K2CO3 and analysed by C18-HPLC as reported ([Mori et al., 2014]). Only the acid labile NADH and NADPH were treated with 1 N NaOH and neutralized using 1:1 vol of 1.73 M KH2CO3 while the highly hydrophobic metabolites vacor, VAD, VMN and VR, were analysed by a modified C18-HPLC method ([Buonvicino et al., 2018]). Reaction products were quantified from peak areas (see Figure 2A) based on coelution with standards (except for cyclic products from NAD analogues that were not available and were attributed based on UV-spectra and retention times as predicted). Rates were calculated as follows. Hydrolysis and cyclization were measured from product generation from the respective individual dinucleotide substrate used, e.g., free and cyclic ADP-ribosyl moieties from NAD (Figure 1B). A basal value for hydrolysis/cyclization was taken as sum of these latter two products. In addition to that value, base exchange or transglycosidation was calculated from the expected dinucleotide analog formed in the presence of the corresponding free base, e.g., AcPyrAD from AcPyr and NAD.
(§2) Inhibition by ribosides was assayed by HPLC initially at fixed 200 μM of each NR, NaR or VR and optimized NAD concentrations for the different enzymes (see Figure 6 legend).

hSARM1 full length [2] = target: T2, hSARM1 full length (Homo sapiens, UniProt Q6SZW1); assay: NADase inhibition by pyridine ribosides (HPLC); settings: for NADase inhibition (in words): hSARM1, riboside fixed at 200 μM, NAD […]; for IC50: hSARM1 full length, saturating NAD ([…]), preliminary
T2 construct: Human recombinant SARM1 full length proteins (wild-type and E642A mutant); made in house
T2 sequence (Q6SZW1 28-724): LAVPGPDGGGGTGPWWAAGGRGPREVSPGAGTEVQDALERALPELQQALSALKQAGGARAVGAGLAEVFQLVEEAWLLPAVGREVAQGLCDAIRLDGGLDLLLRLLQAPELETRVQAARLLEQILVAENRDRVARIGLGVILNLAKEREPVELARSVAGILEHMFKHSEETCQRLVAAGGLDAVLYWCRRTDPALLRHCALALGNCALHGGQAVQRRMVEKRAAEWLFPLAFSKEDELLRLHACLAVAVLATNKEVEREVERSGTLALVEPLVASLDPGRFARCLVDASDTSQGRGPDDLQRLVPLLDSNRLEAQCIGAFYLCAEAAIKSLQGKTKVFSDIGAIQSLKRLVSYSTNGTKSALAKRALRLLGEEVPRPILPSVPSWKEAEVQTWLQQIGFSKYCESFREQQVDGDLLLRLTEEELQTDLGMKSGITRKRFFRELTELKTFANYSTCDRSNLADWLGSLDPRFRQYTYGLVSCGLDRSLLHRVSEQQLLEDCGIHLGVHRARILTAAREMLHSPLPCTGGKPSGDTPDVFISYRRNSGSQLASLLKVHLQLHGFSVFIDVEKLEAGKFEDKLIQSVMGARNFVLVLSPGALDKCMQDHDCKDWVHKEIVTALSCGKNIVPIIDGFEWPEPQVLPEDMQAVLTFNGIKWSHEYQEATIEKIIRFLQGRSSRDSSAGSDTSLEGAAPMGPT
Experimental: as §1, with “NAD. The measured level of overall formed products matched in all cases the dinucleotide substrate consumed and the corresponding pyridine base released, according to the reaction scheme (Figure 1B). Furthermore, enzyme amounts forming 1 μmol/min of overall products above were referred to as single units (U) of activity and initial rates were always considered, for example until a maximum of 20% of the original substrate had been consumed and all products were still accumulating at a nearly linear rate.” for “NAD.”
as §2

hSARM1 SAM-TIR [3] = target: T1, hSARM1 SAM-TIR; assay: Base exchange reactions at neutral pH (HPLC)
Experimental: (§3) Multiple time stops from individual assays as above were analyzed for linearity, then extents of hydrolysis (white bars), cyclization (red bars), or base exchange (black bars) were calculated from each corresponding product as shown in Figure 1B and STAR methods. […] See also Figures S3–S5, and Table S1
(§4) Rates were calculated as follows.

hSARM1 full length [4] = target: T2, hSARM1 full length; assay: Base exchange reactions at neutral pH (HPLC)
Experimental: as §3, §1

hCD38 = target: T3, hCD38 (Homo sapiens, UniProt P28907); assay: Base exchange reactions at neutral pH (HPLC)
T3 construct: a soluble fragment Val43-Ile300 with 6x-His tag at C terminus; 6xHis (C); purchased R&D Systems
T3 sequence (P28907 43-300): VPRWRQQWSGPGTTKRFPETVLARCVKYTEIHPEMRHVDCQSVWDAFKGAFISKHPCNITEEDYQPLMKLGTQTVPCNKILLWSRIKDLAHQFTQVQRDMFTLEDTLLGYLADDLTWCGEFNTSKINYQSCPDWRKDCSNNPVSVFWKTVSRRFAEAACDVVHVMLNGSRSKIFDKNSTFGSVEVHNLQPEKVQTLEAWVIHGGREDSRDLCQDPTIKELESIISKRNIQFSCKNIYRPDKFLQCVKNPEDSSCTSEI
Experimental: as §3, §1

[5] = target: T4, Aplysia californica ADP ribosyl cyclase (Aplysia californica, UniProt P29241); assay: Base exchange reactions at neutral pH (HPLC); parameters: purchased Merck A8950
T4 sequence (P29241 25-282): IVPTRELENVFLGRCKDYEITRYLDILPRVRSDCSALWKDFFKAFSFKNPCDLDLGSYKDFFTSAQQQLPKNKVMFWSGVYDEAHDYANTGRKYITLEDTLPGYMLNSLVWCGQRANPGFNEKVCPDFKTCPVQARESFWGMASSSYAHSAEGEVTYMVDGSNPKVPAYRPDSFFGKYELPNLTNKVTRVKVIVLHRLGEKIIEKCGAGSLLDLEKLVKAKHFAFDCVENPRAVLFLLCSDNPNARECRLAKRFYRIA
Experimental: as §3, §4

[6] = NAD […] alone or + AcPyr 2 mM / Vacor 0.5 mM / Na 2 mM
[7] = NADP […] alone or + AcPyr 2 mM / Vacor 0.5 mM / Na 2 mM
[8] = hSARM1 full length +NMN 0.2 mM, NAD […]
[9] = hSARM1 full length +NMN 0.2 mM, NADP […]
[10] = hSARM1 full length +VMN 0.05 mM, NAD […]
[11] = hSARM1 full length +VMN 0.05 mM, NADP […]

O=C(NCc1ccc[n+]([C@@H]2O[C@H](CO)[C@@H](O)[C@H]2O)c1)Nc1ccc([N+](=O)[O-])cc1 [VR, vacor riboside]
inhibition type (hSARM1 SAM-TIR [1]): mixed-type inhibition
IC50 (hSARM1 SAM-TIR [1]): 61 µM
Ki (hSARM1 SAM-TIR [1]): 25.9 µM
NADase inhibition (in words) (hSARM1 full length [2]): strongly inhibited
IC50 (hSARM1 full length [2]): 154 µM

O=C(O)c1cccnc1 [Na, nicotinic acid]
rate (hSARM1 SAM-TIR [3]; [6]): 315.2 ±69.6 mU/mg
rate (hSARM1 SAM-TIR [3]; [7]): 242.0 ±37.3 mU/mg
base exchange, share of products (hSARM1 full length [4]; [8]): 1.58%
cyclization, share of products (hSARM1 full length [4]; [8]): 8.35%
hydrolysis, share of products (hSARM1 full length [4]; [8]): 90.07%
rate (hSARM1 full length [4]; hSARM1 full length +NMN 0.2 mM, NAD […] alone or + free base): 201.5 ±27.9 mU/mg
rate (relative fold) (hSARM1 full length [4]; hSARM1 full length +NMN 0.2 mM, NAD […], relative to NAD alone without trigger): 9.23 ±1.28 fold
base exchange, share of products (hSARM1 full length [4]; [9]): 1.48%
cyclization, share of products (hSARM1 full length [4]; [9]): ~ 0.05%
hydrolysis, share of products (hSARM1 full length [4]; [9]): 98.47%
rate (hSARM1 full length [4]; hSARM1 full length +NMN 0.2 mM, NADP […] alone or + free base): 131.9 ±10.5 mU/mg
rate (relative fold) (hSARM1 full length [4]; hSARM1 full length +NMN 0.2 mM, NADP […], relative to NADP alone without trigger): 8.98 ±0.711 fold
base exchange, share of products (hSARM1 full length [4]; [10]): 1.68%
cyclization, share of products (hSARM1 full length [4]; [10]): 6.44%
hydrolysis, share of products (hSARM1 full length [4]; [10]): 91.88%
rate (hSARM1 full length [4]; hSARM1 full length +VMN 0.05 mM, NAD […] alone or + free base): 199.0 ±17.6 mU/mg
rate (relative fold) (hSARM1 full length [4]; hSARM1 full length +VMN 0.05 mM, NAD […], relative to NAD alone without trigger): 9.12 ±0.805 fold
base exchange, share of products (hSARM1 full length [4]; [11]): 1.28%
cyclization, share of products (hSARM1 full length [4]; [11]): 0.69%
hydrolysis, share of products (hSARM1 full length [4]; [11]): 98.03%
rate (hSARM1 full length [4]; hSARM1 full length +VMN 0.05 mM, NADP […] alone or + free base): 147.6 ±4.76 mU/mg
rate (relative fold) (hSARM1 full length [4]; hSARM1 full length +VMN 0.05 mM, NADP […], relative to NADP alone without trigger): 10.04 ±0.324 fold
rate (hSARM1 full length [4]; hSARM1 full length, no trigger, NAD […] alone or + AcPyr 2 mM / Vacor 0.5 mM / Na 2 mM, pH 7.5): 23.3 ±0.83 mU/mg
rate (hSARM1 full length [4]; hSARM1 full length, no trigger, NADP […] alone or + AcPyr 2 mM / Vacor 0.5 mM / Na 2 mM, pH 7.5): 17.3 ±0.54 mU/mg
base exchange products VAD(P) or NaAD(P), share of total products (hSARM1 full length [4]; hSARM1 full length, NAD or NADP 250 μM, vacor 0.5 mM, Na 2 mM): 2%–3%
rate (hCD38; [6]): 7934 ±1182 mU/mg
rate (hCD38; [7]): 3189 ±622 mU/mg
rate [5, 6]: 14595 ±3147 mU/mg
rate [5, 7]: 9872 ±1846 mU/mg

NC(=O)c1ccc[n+]([C@@H]2O[C@H](CO)[C@@H](O)[C@H]2O)c1 [NR, nicotinamide riboside]
NADase inhibition (in words) (hSARM1 full length [2]): inactive

O=C([O-])c1ccc[n+]([C@@H]2O[C@H](CO)[C@@H](O)[C@H]2O)c1 [NaR, nicotinic acid riboside]
inhibition type (hSARM1 SAM-TIR [1]): mixed-type inhibition
IC50 (hSARM1 SAM-TIR [1]): 36 µM
Ki (hSARM1 SAM-TIR [1]): 15 µM
IC50 (hSARM1 full length [2]): 87 µM
